One data set has as its system HeLa cells. The data set can be described thus: Compound screen by flow cytometry: HeLa cell count as surrogate readout of cell viability (z-scoreHeLa). For all read-outs here: test concentration or dose not given here. Format: cell-based, human. The note with it: for cell count rep 1 / z-scoreHeLa rep 1: replicate 1; for cell count rep 2 / z-scoreHeLa rep 2: replicate 2; for cell count rep 3 / z-scoreHeLa rep 3: replicate 3; for z-scoreHeLa mean: mean of 3 replicates. The essentials: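 The viability surrogate was the count of fixed HeLa cells by flow cytometry, converted to z-scores against DMSO controls with values deviating two-fold excluded. Before counting, cells had been infected with MRSA for 1 h and cleared of extracellular bacteria with gentamicin. They were then exposed overnight to kinase inhibitors in triplicate.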
(A flow cytometer gives signals particle by particle.)

Another data set concerns intracellular MRSA. The data set is classed as cell-based, Staphylococcus aureus. The note with it: for %GFP+ rep 1 / z-scoreMRSA+ rep 1: replicate 1; for %GFP+ rep 2 / z-scoreMRSA+ rep 2: replicate 2; for %GFP+ rep 3 / z-scoreMRSA+ rep 3: replicate 3; for z-scoreMRSA+ mean: mean of 3 replicates. A digest of the protocol: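 Values are z-scores: GFP-positive HeLa percentage and event count per well against plate statistics, minus the mean DMSO z-score. Wells deviating two-fold from controls were left out of plate means. Infection was at a mean MOI of 6.8, with an overnight compound exposure.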 For %GFP+ rep 1: test concentration or dose not given here. For %GFP+ rep 2: test concentration or dose not given here. For %GFP+ rep 3: test concentration or dose not given here. For effect: test concentration or dose not given here. For z-scoreMRSA+ mean: test concentration or dose not given here. For z-scoreMRSA+ rep 1: test concentration or dose not given here. For z-scoreMRSA+ rep 2: test concentration or dose not given here. For z-scoreMRSA+ rep 3: test concentration or dose not given here.

[1] abbreviates: PKIS compound screen raw data, HeLa cell count.
Where [2] appears, read: compound screen, HeLa cell count.
[3] abbreviates: PKIS compound screen raw data, MRSA-infected HeLa cells.
[4] abbreviates: Yes/No: effect without cell death.
Where [5] appears, read: compound screen, MRSA-infected HeLa cells.
Where [6] appears, read: PKIS compound screen, Yes/No call.
Setting [7] is: PKIS compounds raw data, HeLa cell count.
Setting [8] is: PKIS compound screen, Yes/No call (effect without cell death).
Setting [9] is: PKIS compounds raw data, MRSA-infected HeLa cells.

The structures appear in SMILES notation. Read-outs that look alike come from different tables or passages of the source.

On to `CN(c1ccc(NC(=O)Nc2cccc(Cl)c2)cc1)c1ccnc(N)n1` [GW830707A], for which, in the data set with HeLa cells (setting [1]), the “cell count rep 1” value was 2862, the “cell count rep 2” value is 2838 and the “cell count rep 3” value is recorded as 4346. In addition, the cell death entry in the data set with HeLa cells (Yes/No call from z-scoreHeLa) is recorded as “No”. In the data set with HeLa cells (setting [2]), the z-scoreHeLa mean is given as -0.92, the “z-scoreHeLa rep 1” value is listed as -1.07, the “z-scoreHeLa rep 2” value was -1.13 and the “z-scoreHeLa rep 3” value is -0.56. Further, in the data set with intracellular MRSA (setting [3]), the “%GFP+ rep 1” value stood at 21.9%, the “%GFP+ rep 2” value amounted to 21.1% and the “%GFP+ rep 3” value was 22.8%. Further, the effect result in the data set with intracellular MRSA (Yes/No call from z-scoreMRSA+) was “No”. Moreover, the hit entry in the data set on intracellular MRSA (setting [4]) was “No”. In addition, in the data set on intracellular MRSA (setting [5]), the “z-scoreMRSA+ mean” value was -0.32, the “z-scoreMRSA+ rep 1” value is -0.79, the “z-scoreMRSA+ rep 2” value is -0.37 and the “z-scoreMRSA+ rep 3” value is on record as 0.18.
In the case of `Cc1ccnc2ccc(-c3sc(N)nc3-c3ccccn3)nc12` [GW777257X], in the data set on HeLa cells (setting [1]), the “cell count rep 1” value came out at 3590, the “cell count rep 2” value is on record as 3185 and the “cell count rep 3” value worked out at 3623. The cell death entry in the data set on HeLa cells (Yes/No call from z-scoreHeLa) is “No”. In the data set on HeLa cells (setting [2]), the z-scoreHeLa mean is -0.81, the “z-scoreHeLa rep 1” value is -0.55, the “z-scoreHeLa rep 2” value was -0.86 and the “z-scoreHeLa rep 3” value is recorded as -1.02. For the same compound, in the data set with intracellular MRSA (setting [3]), the “%GFP+ rep 1” value was determined as 20.9%, the “%GFP+ rep 2” value was 19.0% and the “%GFP+ rep 3” value is on record as 19.9%. Further, in the data set on intracellular MRSA (Yes/No call from z-scoreMRSA+), the effect entry is “No”. Moreover, in the data set on intracellular MRSA (setting [4]), the hit result is on record as “No”. Besides, in the data set on intracellular MRSA (setting [5]), the “z-scoreMRSA+ mean” value was -0.86, the “z-scoreMRSA+ rep 1” value is listed as -1.02, the “z-scoreMRSA+ rep 2” value is -0.88 and the “z-scoreMRSA+ rep 3” value is -0.69.
For the compound `O=C(Nc1ccc(Oc2ccc3nc(NC(=O)c4ccco4)[nH]c3c2)cc1)Nc1cc(C(F)(F)F)ccc1F` [GW683134A], in the data set with HeLa cells (setting [1]), the “cell count rep 1” value was determined as 24828, the “cell count rep 2” value stood at 19604 and the “cell count rep 3” value is on record as 15141. The cell death result in the data set on HeLa cells (Yes/No call from z-scoreHeLa) was “No”. In addition, in the data set with HeLa cells (setting [2]), the z-scoreHeLa mean was -0.87, the “z-scoreHeLa rep 1” value is -0.91, the “z-scoreHeLa rep 2” value is reported as -0.97 and the “z-scoreHeLa rep 3” value is recorded as -0.74. Also, in the data set with intracellular MRSA (setting [3]), the “%GFP+ rep 1” value was determined as 9.6%, the “%GFP+ rep 2” value came to 11.2% and the “%GFP+ rep 3” value was found to be 12.6%. Also, the effect result in the data set with intracellular MRSA (Yes/No call from z-scoreMRSA+) is reported as “Yes”. Also, in the data set on intracellular MRSA (setting [4]), the hit entry was “Yes”. Moreover, in the data set with intracellular MRSA (setting [5]), the “z-scoreMRSA+ mean” value was -2.35, the “z-scoreMRSA+ rep 1” value is reported as -2.44, the “z-scoreMRSA+ rep 2” value is recorded as -2.24 and the “z-scoreMRSA+ rep 3” value is listed as -2.36.
Take `Cn1cc(-c2ccc3c(c2)CCN3C(=O)Cc2cc(F)cc(F)c2F)c2c(N)ncnc21` [GSK2634140A]: in the data set on HeLa cells (setting [1]), the “cell count rep 1” value came to 2359, the “cell count rep 2” value was 2548 and the “cell count rep 3” value is listed as 2693. Further, in the data set with HeLa cells (Yes/No call from z-scoreHeLa), the cell death result is reported as “No”. In addition, in the data set with HeLa cells (setting [2]), the z-scoreHeLa mean is -1.47, the “z-scoreHeLa rep 1” value is -1.44, the “z-scoreHeLa rep 2” value is given as -1.35 and the “z-scoreHeLa rep 3” value is on record as -1.61. Further, in the data set on intracellular MRSA (setting [3]), the “%GFP+ rep 1” value is 26.0%, the “%GFP+ rep 2” value is 26.7% and the “%GFP+ rep 3” value amounted to 24.3%. Also, the effect result in the data set on intracellular MRSA (Yes/No call from z-scoreMRSA+) is listed as “No”. The hit entry with intracellular MRSA (setting [4]) is reported as “No”. For the same compound, in the data set on intracellular MRSA (setting [5]), the “z-scoreMRSA+ mean” value is on record as 0.60, the “z-scoreMRSA+ rep 1” value was 0.17, the “z-scoreMRSA+ rep 2” value was 0.99 and the “z-scoreMRSA+ rep 3” value amounted to 0.63.
Turning to `O=C(Nc1ccccc1F)NC1CCN(c2ccnc(Nc3ccc(F)cc3)n2)CC1` [GSK1379800A], the cell death entry in the data set on HeLa cells (setting [6]) is given as “No”. Further, in the data set on HeLa cells (PKIS compound screen), the z-scoreHeLa mean came to 0.79, the “z-scoreHeLa rep 1” value stood at 0.80, the “z-scoreHeLa rep 2” value is listed as 0.32 and the “z-scoreHeLa rep 3” value was 1.24. Besides, in the data set on HeLa cells (setting [7]), the “cell count rep 1” value worked out at 7378, the “cell count rep 2” value was determined as 6492 and the “cell count rep 3” value is 7551. Besides, in the data set with intracellular MRSA (setting [6]), the effect result was “No”. Moreover, in the data set on intracellular MRSA (setting [8]), the hit result is reported as “No”. Also, in the data set on intracellular MRSA (PKIS compound screen), the “z-scoreMRSA+ mean” value is 0.29, the “z-scoreMRSA+ rep 1” value is recorded as -0.13, the “z-scoreMRSA+ rep 2” value was 0.53 and the “z-scoreMRSA+ rep 3” value amounted to 0.47. For the same compound, in the data set on intracellular MRSA (setting [9]), the “%GFP+ rep 1” value was 26.4%, the “%GFP+ rep 2” value is 28.8% and the “%GFP+ rep 3” value came to 29.8%.
For `Cc1ccc(C(=O)Nc2ccc(Nc3ccnc4cc(-c5nccs5)ccc34)cc2O)cc1` [GW494702A], the cell death result in the data set with HeLa cells (setting [6]) is reported as “No”. For the same compound, in the data set with HeLa cells (PKIS compound screen), the z-scoreHeLa mean was 0.98, the “z-scoreHeLa rep 1” value was 0.32, the “z-scoreHeLa rep 2” value was 1.13 and the “z-scoreHeLa rep 3” value is reported as 1.50. In the data set on HeLa cells (setting [7]), the “cell count rep 1” value amounted to 6577, the “cell count rep 2” value amounted to 7707 and the “cell count rep 3” value is 7965. Further, in the data set with intracellular MRSA (setting [6]), the effect entry was “No”. For the same compound, the hit entry with intracellular MRSA (setting [8]) is recorded as “No”. Besides, in the data set with intracellular MRSA (PKIS compound screen), the “z-scoreMRSA+ mean” value is -1.32, the “z-scoreMRSA+ rep 1” value is on record as -1.18, the “z-scoreMRSA+ rep 2” value was -1.22 and the “z-scoreMRSA+ rep 3” value was -1.55. Besides, in the data set with intracellular MRSA (setting [9]), the “%GFP+ rep 1” value is recorded as 21.0%, the “%GFP+ rep 2” value is reported as 19.7% and the “%GFP+ rep 3” value stood at 18.9%.
`CN(C)c1cc2c(Nc3ccc4nc(Cc5ccccc5)[nH]c4c3)ncnc2cn1` [GW301888X]: the cell death entry in the data set on HeLa cells (setting [6]) is given as “No”. For the same compound, in the data set on HeLa cells (PKIS compound screen), the z-scoreHeLa mean is 0.66, the “z-scoreHeLa rep 1” value came out at 0.47, the “z-scoreHeLa rep 2” value was 0.90 and the “z-scoreHeLa rep 3” value is 0.61. Moreover, in the data set on HeLa cells (setting [7]), the “cell count rep 1” value is reported as 6836, the “cell count rep 2” value is on record as 7361 and the “cell count rep 3” value turned out to be 6557. Besides, in the data set on intracellular MRSA (setting [6]), the effect entry is recorded as “No”. For the same compound, in the data set with intracellular MRSA (setting [8]), the hit entry is “No”. Moreover, in the data set with intracellular MRSA (PKIS compound screen), the “z-scoreMRSA+ mean” value turned out to be 0.0238, the “z-scoreMRSA+ rep 1” value is -0.0117, the “z-scoreMRSA+ rep 2” value was 0.30 and the “z-scoreMRSA+ rep 3” value is listed as -0.22. In the data set with intracellular MRSA (setting [9]), the “%GFP+ rep 1” value amounted to 27.0%, the “%GFP+ rep 2” value stood at 27.6% and the “%GFP+ rep 3” value is given as 26.1%.
Regarding `Cc1ccc(S(=O)(=O)Nc2ccc(Nc3nccc(Nc4cccc5[nH]ncc45)n3)cc2)cc1` [GSK581271A], in the data set with HeLa cells (setting [6]), the cell death entry was “No”. Besides, in the data set on HeLa cells (PKIS compound screen), the z-scoreHeLa mean is 0.40, the “z-scoreHeLa rep 1” value stood at 0.33, the “z-scoreHeLa rep 2” value is 0.35 and the “z-scoreHeLa rep 3” value came to 0.51. For the same compound, in the data set on HeLa cells (setting [7]), the “cell count rep 1” value is 6603, the “cell count rep 2” value was 6528 and the “cell count rep 3” value was found to be 6401. Besides, in the data set with intracellular MRSA (setting [6]), the effect entry is recorded as “No”. Further, in the data set with intracellular MRSA (setting [8]), the hit entry is reported as “No”. Moreover, in the data set with intracellular MRSA (PKIS compound screen), the “z-scoreMRSA+ mean” value was -0.30, the “z-scoreMRSA+ rep 1” value was -0.62, the “z-scoreMRSA+ rep 2” value was found to be 0.0118 and the “z-scoreMRSA+ rep 3” value is -0.29. Moreover, in the data set on intracellular MRSA (setting [9]), the “%GFP+ rep 1” value is given as 23.9%, the “%GFP+ rep 2” value is reported as 26.1% and the “%GFP+ rep 3” value is recorded as 25.7%.

(Values after article PMC10999543, “Identification of kinase modulators as host-directed therapeutics against intracellular methicillin-resistant Staphylococcus aureus” (Frontiers in Cellular and Infection Microbiology, 2024).)
